{"source": "paper PMC8215293", "about": "(The Journal of Biological Chemistry, 2021)", "key": {"CYP11B2": {"molecular_target": "T1, CYP11B2 (Homo sapiens, UniProt P19099)", "T1 sequence (P19099 30-503 limits assumed)": "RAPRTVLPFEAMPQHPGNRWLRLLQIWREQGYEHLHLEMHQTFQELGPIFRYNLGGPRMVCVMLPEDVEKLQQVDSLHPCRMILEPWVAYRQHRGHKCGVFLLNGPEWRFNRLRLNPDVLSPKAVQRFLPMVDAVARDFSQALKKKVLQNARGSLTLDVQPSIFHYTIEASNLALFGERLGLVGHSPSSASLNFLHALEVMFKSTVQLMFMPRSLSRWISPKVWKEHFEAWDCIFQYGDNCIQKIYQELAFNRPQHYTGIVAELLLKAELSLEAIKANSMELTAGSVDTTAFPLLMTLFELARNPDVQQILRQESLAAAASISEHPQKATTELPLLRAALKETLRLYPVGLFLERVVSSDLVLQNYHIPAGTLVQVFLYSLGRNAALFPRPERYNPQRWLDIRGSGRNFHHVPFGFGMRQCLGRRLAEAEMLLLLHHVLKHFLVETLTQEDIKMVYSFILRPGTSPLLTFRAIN", "format": "binding", "conditions": "isolated CYP11B2 0.2 μM, 5 cm path length"}, "[1]": {"molecular_target": "T2, adrenodoxin–CYP11B2 fusion protein (Homo sapiens, UniProt P10109+P19099)", "T2 sequence (P10109+P19099 with tags, fused parts or gaps)": "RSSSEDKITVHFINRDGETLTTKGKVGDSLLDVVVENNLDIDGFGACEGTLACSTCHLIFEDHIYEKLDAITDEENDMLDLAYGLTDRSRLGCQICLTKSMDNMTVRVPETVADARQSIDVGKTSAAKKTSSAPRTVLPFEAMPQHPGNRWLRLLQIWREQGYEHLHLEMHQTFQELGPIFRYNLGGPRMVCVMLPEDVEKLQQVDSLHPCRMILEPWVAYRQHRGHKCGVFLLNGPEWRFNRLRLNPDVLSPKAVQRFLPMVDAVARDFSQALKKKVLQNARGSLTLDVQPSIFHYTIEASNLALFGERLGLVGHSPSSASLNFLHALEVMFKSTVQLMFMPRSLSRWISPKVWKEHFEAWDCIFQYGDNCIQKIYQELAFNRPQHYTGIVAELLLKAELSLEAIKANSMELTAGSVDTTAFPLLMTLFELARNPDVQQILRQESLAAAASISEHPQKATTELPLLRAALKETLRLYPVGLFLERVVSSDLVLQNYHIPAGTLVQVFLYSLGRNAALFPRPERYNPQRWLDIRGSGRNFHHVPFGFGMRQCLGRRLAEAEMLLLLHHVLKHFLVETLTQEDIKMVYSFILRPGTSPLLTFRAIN", "format": "binding", "conditions": "Adx-CYP11B2 fusion 0.2 μM, 5 cm path length"}, "[2]": {"tested_on": "adrenodoxin–CYP11B2 fusion protein", "format": "binding, human", "conditions": "fusion versus isolated CYP11B2"}}, "note": "Several values for one entry are separate records, joined by “and”; a condition that tells them apart may be missing. Identical values can stand only once."}
{"smiles": "N#Cc1ccc([C@H]2CCc3cncn32)c(F)c1", "note": "[LCI699, osilodrostat]", "values": [{"measurement": "Amax", "setting": "CYP11B2", "value": 0.019}, {"measurement": "Amax", "setting": "[1]", "value": 0.032}, {"measurement": "increase of Amax (enzyme population binding inhibitor at saturation)", "setting": "[2]", "value": "~1.7 fold and 1.7 fold"}, {"measurement": "increase of Kd", "setting": "[2]", "value": 1.8, "unit": "fold"}]}
